Test system: Plasmodium falciparum
Test: Antimalarial activity against chloroquine-resistant ring stage of Plasmodium falciparum W2 infected in human erythrocytes assessed as inhibition of parasitemia after 48 hrs by FACS analysis
Format: functional, organism-based
Details: W2, 48 h

`Cc1ccc(N2C(=O)[C@@H](NCc3cn(-c4ccnc5cc(Cl)ccc45)nn3)[C@H]2/C=C/c2ccccc2)cc1` and `O=C1[C@@H](NCc2cn(-c3ccnc4cc(Cl)ccc34)nn2)[C@@H](/C=C/c2ccccc2)N1c1ccc(F)cc1` cannot be ordered by IC50: > 10000 nM for the first, > 10000 nM for the second.

First: O=C1[C@@H](NCc2cn(-c3ccnc4cc(Cl)ccc34)nn2)[C@@H](/C=C/c2ccccc2)N1c1ccccc1
Second: O=C1[C@@H](NCc2cn(-c3ccnc4cc(Cl)ccc34)nn2)[C@@H](/C=C/c2ccccc2)N1Cc1ccccc1
The IC50 of the first is 3.1-fold lower: 1900 nM for the first, 5900 nM for the second. The first is the more potent here.

First: O=C1[C@@H](NCc2cn(-c3ccnc4cc(Cl)ccc34)nn2)[C@@H](/C=C/c2ccccc2)N1C1CCCCC1
Second: O=C1[C@@H](N(Cc2cn(-c3ccnc4cc(Cl)ccc34)nn2)Cc2cn(-c3ccnc4cc(Cl)ccc34)nn2)[C@@H](/C=C/c2ccccc2)N1C1CCCCC1
The IC50 of the first is 1.5-fold higher: 4300 nM for the first, 2800 nM for the second.

`Cc1ccc(N2C(=O)[C@@H](N(Cc3cn(-c4ccnc5cc(Cl)ccc45)nn3)Cc3cn(-c4ccnc5cc(Cl)ccc45)nn3)[C@H]2/C=C/c2ccccc2)cc1` and `O=C1[C@@H](N(Cc2cn(-c3ccnc4cc(Cl)ccc34)nn2)Cc2cn(-c3ccnc4cc(Cl)ccc34)nn2)[C@@H](/C=C/c2ccccc2)N1c1ccc(F)cc1` are within 1.5-fold of each other in IC50: 1500 nM for the first, 1100 nM for the second.

`O=C1[C@@H](N(Cc2cn(-c3ccnc4cc(Cl)ccc34)nn2)Cc2cn(-c3ccnc4cc(Cl)ccc34)nn2)[C@@H](/C=C/c2ccccc2)N1c1ccccc1` and `O=C1[C@@H](N(Cc2cn(-c3ccnc4cc(Cl)ccc34)nn2)Cc2cn(-c3ccnc4cc(Cl)ccc34)nn2)[C@@H](/C=C/c2ccccc2)N1Cc1ccccc1` are within 1.5-fold of each other in IC50: 2100 nM for the first, 2700 nM for the second.

— ChEMBL document CHEMBL1933034, “Synthesis, docking and in vitro antimalarial evaluation of bifunctional hybrids derived from β-lactams and 7-chloroquinoline using click chemistry” (Bioorg Med Chem Lett, 2012)
